Counter-ions that a name gives are not always drawn. Where only a bound is given, the exact number is not on record here.

One experiment deals with T1, human TLR7 (Homo sapiens, UniProt Q9NYK1).
T1 construct: host or cells: HEK293 (HEK-Blue hTLR7)
T1 sequence (Q9NYK1 27-1049): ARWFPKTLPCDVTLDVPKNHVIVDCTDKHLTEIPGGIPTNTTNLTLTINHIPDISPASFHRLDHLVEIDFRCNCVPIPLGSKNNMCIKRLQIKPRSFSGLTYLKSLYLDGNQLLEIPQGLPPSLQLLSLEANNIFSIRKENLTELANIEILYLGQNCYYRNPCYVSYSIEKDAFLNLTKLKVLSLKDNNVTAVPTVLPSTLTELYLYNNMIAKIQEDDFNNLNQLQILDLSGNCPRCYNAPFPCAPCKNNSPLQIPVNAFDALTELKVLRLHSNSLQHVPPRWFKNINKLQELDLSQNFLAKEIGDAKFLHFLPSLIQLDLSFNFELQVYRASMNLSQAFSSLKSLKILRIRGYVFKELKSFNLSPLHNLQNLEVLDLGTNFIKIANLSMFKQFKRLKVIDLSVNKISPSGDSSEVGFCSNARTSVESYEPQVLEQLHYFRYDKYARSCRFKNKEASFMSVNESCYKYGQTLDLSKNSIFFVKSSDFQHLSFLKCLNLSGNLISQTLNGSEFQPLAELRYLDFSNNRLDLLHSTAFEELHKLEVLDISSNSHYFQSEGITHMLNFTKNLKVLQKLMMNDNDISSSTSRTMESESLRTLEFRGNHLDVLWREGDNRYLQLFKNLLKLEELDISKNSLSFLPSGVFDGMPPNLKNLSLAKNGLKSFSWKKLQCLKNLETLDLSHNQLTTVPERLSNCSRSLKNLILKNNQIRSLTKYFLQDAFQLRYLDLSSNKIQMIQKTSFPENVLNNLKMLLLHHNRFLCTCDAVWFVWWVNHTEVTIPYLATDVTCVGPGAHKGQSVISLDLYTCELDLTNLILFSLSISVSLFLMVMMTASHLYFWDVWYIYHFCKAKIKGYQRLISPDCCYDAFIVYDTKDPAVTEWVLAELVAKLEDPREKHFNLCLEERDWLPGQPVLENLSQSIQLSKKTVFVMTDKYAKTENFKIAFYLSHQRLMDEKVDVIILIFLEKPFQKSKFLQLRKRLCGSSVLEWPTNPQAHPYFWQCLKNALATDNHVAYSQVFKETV
The experiment is described as follows: HEK-Blue hTLR7 reporter cell assay (SEAP, NF-kB/AP-1) for stimulation of human TLR7. To be noted: HEK-Blue hTLR7 cells, 24 h incubation, SEAP readout; read-out: TLR7_EC50. Type of experiment: cell-based. The method, boiled down:
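HEK293 cells expressing hTLR7 with NF-κB/AP-1-driven SEAP reporter, seeded 3.10E4 cells/well, pre-incubated 18–24 h, then exposed to 3-fold compound dilutions (0.01–20 μM) for 24 h at 37 °C. Supernatant SEAP read with QUANTI-Blue; EC50 as concentration giving 50% activation.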

For a further experiment, the target named is T2, human TLR8 (Homo sapiens, UniProt Q9NR97).
T2 construct: host or cells: HEK293 (HEK-Blue hTLR8)
T2 sequence (Q9NR97 27-1041): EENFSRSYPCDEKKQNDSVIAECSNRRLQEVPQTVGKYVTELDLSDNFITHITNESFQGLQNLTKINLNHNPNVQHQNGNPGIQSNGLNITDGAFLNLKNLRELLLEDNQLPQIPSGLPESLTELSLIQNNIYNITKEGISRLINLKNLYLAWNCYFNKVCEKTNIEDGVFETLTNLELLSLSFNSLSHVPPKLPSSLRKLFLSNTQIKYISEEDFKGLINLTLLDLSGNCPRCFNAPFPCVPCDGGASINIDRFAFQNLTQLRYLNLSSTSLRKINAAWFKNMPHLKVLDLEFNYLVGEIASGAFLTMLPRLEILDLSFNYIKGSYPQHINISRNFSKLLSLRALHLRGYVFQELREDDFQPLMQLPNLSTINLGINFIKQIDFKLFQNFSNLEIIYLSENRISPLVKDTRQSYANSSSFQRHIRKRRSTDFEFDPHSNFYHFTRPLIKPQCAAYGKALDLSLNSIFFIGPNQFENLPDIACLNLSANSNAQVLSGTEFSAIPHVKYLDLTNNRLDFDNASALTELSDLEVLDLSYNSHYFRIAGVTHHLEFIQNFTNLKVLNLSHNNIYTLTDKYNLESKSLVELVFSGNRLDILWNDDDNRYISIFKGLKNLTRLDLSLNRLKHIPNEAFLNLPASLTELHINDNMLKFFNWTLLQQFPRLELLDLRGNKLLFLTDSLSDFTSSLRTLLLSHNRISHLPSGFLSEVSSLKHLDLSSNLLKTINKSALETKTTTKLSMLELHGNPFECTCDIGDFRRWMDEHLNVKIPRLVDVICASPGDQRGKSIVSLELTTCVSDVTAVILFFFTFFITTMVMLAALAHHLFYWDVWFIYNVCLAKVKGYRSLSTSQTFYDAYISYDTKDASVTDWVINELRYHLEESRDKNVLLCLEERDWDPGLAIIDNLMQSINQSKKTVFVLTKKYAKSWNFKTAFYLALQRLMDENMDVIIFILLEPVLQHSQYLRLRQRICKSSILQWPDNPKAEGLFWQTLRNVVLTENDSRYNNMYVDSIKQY
Nature of the experiment: HEK-Blue hTLR8 reporter cell assay (SEAP, NF-kB/AP-1) for stimulation of human TLR8. The class given is cell-based. As to conditions: HEK-Blue hTLR8 cells, 24 h incubation, SEAP readout; read-out: TLR8_EC50. The method, boiled down: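 HEK293 cells carrying hTLR8 and a SEAP reporter driven by NF-κB/AP-1 sites were seeded at 3.10E4 cells/well and held 18 to 24 h at 37° C., 5% CO2 before compound addition. Supernatant SEAP measured with QUANTI-Blue™.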

For the molecule `CCCCc1nc2c(N)nnc(OC3CC[S+]([O-])C3)c2n1Cc1ccc(OC)cc1` (single isomer, unassigned; isomer a) [Compound 65, 3-((4-amino-2-butyl-1-(4-methoxybenzyl)-1H-imidazo[4,5-d]pyridazin-7-yl)oxy)tetrahydrothiophene 1-oxide isomer A], the EC50 at human TLR7 was 2210 nM; at human TLR8, over 20000 nM.
Take `CCCCc1nc2c(N)nnc(OC(C)C)c2n1Cc1cccc(CNC(C)C)c1` [Compound 128, 2-butyl-7-isopropoxy-1-(3-((isopropylamino)methyl)benzyl)-1H-imidazo[4,5-d]pyridazin-4-amine dihydrochloride salt]: the EC50 on human TLR7 was 5980 nM; on human TLR8, over 20000 nM.
For `CCCCc1nc2c(N)nnc(CCC(C)C)c2n1C[C@H]1CC[C@H](CN)CC1` [Compound 138, 1-(((1R,4R)-4-(aminomethyl)cyclohexyl)methyl)-2-butyl-7-isopentyl-1H-imidazo[4,5-d]pyridazin-4-amine], the figures for the EC50 at human TLR7 and at human TLR8 were 51.4 nM and over 20000 nM, respectively.
As to `CCCCc1nc2c(N)nnc(OC(C)C)c2n1Cc1cccc(CNC2(C)CCC2)c1` [Compound 130, 2-butyl-7-isopropoxy-1-(3-(((1-methylcyclobutyl)amino)methyl)benzyl)-1H-imidazo[4,5-d]pyridazin-4-amine dihydrochloride salt], the EC50 on human TLR7 was 76 nM; on human TLR8, 1060 nM.
On the same counts, the results for `CCCCCCC(=O)NCc1ccc(Cn2c(CCCC)nc3c(N)nnc(OC(C)C)c32)cc1` [Compound 84, N-(4-((4-amino-2-butyl-7-isopropoxy-1H-imidazo[4,5-d]pyridazin-1-yl)methyl)benzyl)heptanamide] are 263 nM and 1810 nM.
With `CCCCc1nc2c(N)nnc(N3CCCC3)c2n1C[C@H]1CC[C@H](CN)CC1` [Compound 142, 1-(((1R,4R)-4-(aminomethyl)cyclohexyl)methyl)-2-butyl-7-(pyrrolidin-1-yl)-1H-imidazo[4,5-d]pyridazin-4-amine], the results for the EC50 at human TLR7 and on human TLR8 were 2640 nM and over 20000 nM, respectively.
In the case of `CCCCc1nc2c(N)nnc(OC(C)C)c2n1CCCCNC1CCOCC1` [Compound 150, 2-butyl-4-isopropoxy-3-[4-(tetrahydropyran-4-ylamino)butyl]imidazo[4,5-d]pyridazin-7-amine hydrochloride salt], the EC50 at human TLR7 stood at 2210 nM; on human TLR8, 11400 nM.
As to `CCCCc1nc2c(N)nnc(OC(C)C)c2n1Cc1ccc(CNC(C)C)cc1` [Compound 83, 2-butyl-7-isopropoxy-1-(4-((isopropylamino)methyl)benzyl)-1H-imidazo[4,5-d]pyridazin-4-amine dihydrochloride], the EC50 at human TLR7 is 8 nM; on human TLR8, 637 nM.
On the same counts, the results for `CCCCc1nc2c(N)nnc(OC(C)C)c2n1Cc1cccc(CNC2CCC2)c1` [Compound 126, 2-butyl-1-(3-((cyclobutylamino)methyl)benzyl)-7-isopropoxy-1H-imidazo[4,5-d]pyridazin-4-amine dihydrochloride salt] are 122 nM and 382 nM.
Turning to `CCCCc1nc2c(N)nnc(OC(C)C)c2n1CC1CCCCC1` [Compound 81, 2-butyl-1-(cyclohexylmethyl)-7-isopropoxy-1H-imidazo[4,5-d]pyridazin-4-amine hydrochloride], the figures for the EC50 on human TLR7 and on human TLR8 were 117 nM and over 20000 nM, respectively.
In the case of `CCCCc1nc2c(N)nnc(-c3cccs3)c2n1Cc1ccc(OC)cc1` [Compound 63, 2-butyl-1-(4-methoxybenzyl)-7-(thiophen-2-yl)-1H-imidazo[4,5-d]pyridazin-4-amine], the results for the EC50 at human TLR7 and at human TLR8 were 1180 nM and over 20000 nM, respectively.
Turning to `CCCCc1nc2c(N)nnc(OC(C)C)c2n1Cc1cccc(CNC)c1` [Compound 124, 2-butyl-7-isopropoxy-1-(3-((methylamino)methyl)benzyl)-1H-imidazo[4,5-d]pyridazin-4-amine], the EC50 at human TLR7 is 178 nM; at human TLR8, 231 nM.
Regarding `CCCCc1nc2c(N)nnc(OC(C)C)c2n1CCCCNC1CS(=O)(=O)C1` [Compound 152, 2-butyl-3-[4-[(1,1-dioxothietan-3-yl)amino]butyl]-4-isopropoxy-imidazo[4,5-d]pyridazin-7-amine], the EC50 on human TLR7 was 4390 nM; at human TLR8, over 20000 nM.
For `CCCCc1nc2c(N)nnc(OC(C)C)c2n1Cc1cccc(CN(C)C)c1` [Compound 125, 2-butyl-1-(3-((dimethylamino)methyl)benzyl)-7-isopropoxy-1H-imidazo[4,5-d]pyridazin-4-amine], the EC50 was 392 nM on human TLR7 and 115 nM at human TLR8.
For `CCCCc1nc2c(N)nnc(OC(C)C)c2n1Cc1ccc(CNC2(C)CCC2)cc1` [Compound 39, 2-butyl-7-isopropoxy-1-(4-(((1-methylcyclobutyl)amino)methyl)benzyl)-1H-imidazo[4,5-d]pyridazin-4-amine], the EC50 on human TLR7 was found to be 17 nM; on human TLR8, 401 nM.
In the case of `CCCc1nc2c(N)nnc(OC(C)C)c2n1Cc1ccc(CN)cc1` [Compound 158, 1-(4-(aminomethyl)benzyl)-7-isopropoxy-2-propyl-1H-imidazo[4,5-d]pyridazin-4-amine], the EC50 on human TLR7 is 717 nM; at human TLR8, over 20000 nM.
Turning to `CCCCc1nc2c(N)nnc(OC3CCOCC3)c2n1Cc1ccc(OC)cc1` [Compound 57, 2-butyl-1-(4-methoxybenzyl)-7-((tetrahydro-2H-pyran-4-yl)oxy)-1H-imidazo[4,5-d]pyridazin-4-amine], the values for the EC50 on human TLR7 and at human TLR8 were 344 nM and over 20000 nM, respectively.
On the same counts, the results for `CCCCc1nc2c(N)nnc(OC(C)C)c2n1CCCCN(C(C)=O)C1CS(=O)(=O)C1` [Compound 153, N-[4-(7-amino-2-butyl-4-isopropoxy-imidazo[4,5-d]pyridazin-3-yl)butyl]-N-(1,1-dioxothietan-3-yl)acetamide] are 18400 nM and over 20000 nM.
As to `CCCCc1nc2c(N)nnc(-c3cccn3C)c2n1Cc1ccc(OC)cc1` [Compound 70, 2-butyl-1-(4-methoxybenzyl)-7-(1-methyl-1H-pyrrol-2-yl)-1H-imidazo[4,5-d]pyridazin-4-amine hydrochloride], the values for the EC50 at human TLR7 and at human TLR8 were 4000 nM and over 20000 nM, respectively.
For the molecule `CCCCc1nc2c(N)nnc(OC(C)C)c2n1Cc1ccc(CNC(=O)CC)cc1` [Compound 103, N-(4-((4-amino-2-butyl-7-isopropoxy-1H-imidazo[4,5-d]pyridazin-1-yl)methyl)benzyl)propionamide], the EC50 at human TLR7 turned out to be 55 nM; at human TLR8 it was 15500 nM.

For the origin of these results see patent US12583861B2, “Derivatives of imidazo[4,5-d]pyridazine, their preparation and their therapeutic application” (SANOFI, priority 2021, dated 2026).
